The text below walks through data of patent publication US11364189B2, “Method for the treatment of keratin materials using amide C-glycoside derivatives, and cosmetic composition containing same” (L'OREAL, priority 2016, dated 2022).

One assay has as its system normal human melanocytes. Description: Depigmenting activity (reduction of melanin production) in normal human melanocytes in vitro. Type of assay: cell-based. The note with it: run 1, 72 hours incubation, optical density (melanin). The method, then: The measurement of the depigmenting activity (reduction of melanin production) of compounds of formula (I) was performed by assaying normal human melanocytes in vitro as follows.
First, normal human melanocytes are cultured and distributed in wells. After 24 hours, the culture medium was replaced with a medium containing the compounds of formula (I) to be evaluated. The cells were incubated for 72 hours before measuring the final optical density, which measures the amount of melanin produced by the melanocytes. The compounds are tested at 100 μM after calibration.
Various test runs were performed and the results are collated in the following table.
Regarding `NC(=O)CNC(=O)C(O)[C@@H]1OC[C@@H](O)[C@H](O)C1O` (stereo partly shown) [Compound 10], the “% Depigmentation at 100 μM (run 1)” value amounted to 20%.

`NC(=O)C1CCCN1C(=O)C(O)[C@@H]1O[C@H](CO)[C@@H](O)C(O)C1O` (stereo partly shown) [Compound 6]: the “% Depigmentation at 100 μM (run 1)” value is recorded as 29%.

With `NC(=O)[C@@H](CO)NC(=O)C(O)[C@@H]1OC[C@@H](O)[C@H](O)C1O` (single isomer, unassigned) [Compound 11-dia1], the “% Depigmentation at 100 μM (run 1)” value is on record as 28%.

For the compound `NC(=O)CNC(=O)C(O)[C@@H]1O[C@H](CO)[C@@H](O)[C@H](O)C1O` (stereo partly shown) [Compound 4], the “% Depigmentation at 100 μM (run 1)” value was found to be 19%.

For the compound `NC(=O)[C@@H](CO)NC(=O)C(O)[C@@H]1O[C@H](CO)[C@@H](O)[C@H](O)C1O` (stereo partly shown) [Compound 5], the “% Depigmentation at 100 μM (run 1)” value came to 31%.

Turning to `O=C(O)c1ccc(NC(=O)C(O)C2O[C@H](CO)[C@@H](O)[C@H](O)[C@H]2O)cc1O` (stereo partly shown) [Compound 1], the “% Depigmentation at 100 μM (run 1)” value was 13%.

`NC(=O)CCNC(=O)C(O)[C@@H]1O[C@H](CO)[C@@H](O)[C@H](O)C1O` (stereo partly shown) [Compound 7]: the “% Depigmentation at 100 μM (run 1)” value is given as 34%.

Still in this assay, the particulars now being: run 2, 72 hours incubation, optical density (melanin).
`NC(=O)[C@@H](CO)NC(=O)C(O)[C@@H]1OC[C@@H](O)[C@H](O)C1O` (single isomer, unassigned) [Compound 11-dia2]: the “% depigmentation at 100 μM (run 2)” value stood at 32%.

Turning to `CCOC(=O)[C@@H](CO)NC(=O)C(O)[C@@H]1OC[C@@H](O)[C@H](O)C1O` (stereo partly shown) [Compound 12], the “% depigmentation at 100 μM (run 2)” value amounted to 20%.

`CCOC(=O)[C@@H](CO)NC(=O)C(OC(C)=O)C1OC[C@@H](OC(C)=O)[C@H](OC(C)=O)[C@H]1O` (single isomer, unassigned) [Compound 20-dia1]: the “% depigmentation at 100 μM (run 2)” value is listed as 23%.

In the case of `CCOC(=O)CNC(=O)C(OC(C)=O)C1OC[C@@H](OC(C)=O)[C@H](OC(C)=O)[C@H]1O` (stereo partly shown) [Compound 19], the “% depigmentation at 100 μM (run 2)” value is recorded as 15%.

The subject of the next assay is normal human melanocytes. The assay is described as above. Particulars: 200 μM (max dose tested). Type of assay: cell-based.
For the compound `CCOC(=O)[C@@H](CO)NC(=O)C(O)[C@@H]1OC[C@@H](O)[C@H](O)C1O` (stereo partly shown) [Compound 12], the “% depigmentation at the max dose tested 200 μM (run 2)” value is given as 28%.

With `CCOC(=O)CNC(=O)C(OC(C)=O)C1OC[C@@H](OC(C)=O)[C@H](OC(C)=O)[C@H]1O` (stereo partly shown) [Compound 19], the “% depigmentation at the max dose tested 200 μM (run 2)” value was determined as 43%.
